In patent US9611292B2, “Peptide inhibitors of serotonin 5-HT2c receptors:PTEN interaction” (THE BOARD OF REGENTS OF THE UNIVERSITY OF TEXAS SYSTEM, priority 2011, dated 2017):
Entries after “also recorded” stand apart in the source; their conditions may differ.

Assays:
5-HT2CR = assay: Cai++ release in 5-HT2CR-CHO cells; format: cell-based
Source text: (§1) The 5-HT2CR:PTEN complex occurs in rat brain regions implicated in palatable food reward. […] These cells have been employed for 5-HT2CR signaling studies. […] Providing 3L4F and fragments thereof disrupt the complex in the cell and result in the lack of co-localization of the molecules by immunohistochemistry or by immunoprecipitation studies. 5-HT2CR and PTEN can be co-immunoprecipitated from brain tissue samples. Additional studies using the split luciferase assay also detect direct coupling of 5-HT2CR with PTEN.
Functional analysis of the complex was investigated using Cai^++ release in 5-HT2CR-CHO cells. […] The studies have shown that the 3L4F peptide enhances Cai^++ release via a 5-HT2CR specific mechanism acting down stream ligand binding.
FIG. 15 compares the efficacy of derivatives 210 and A1 in terms of % 1 nM 5-HT induced Cai^++ release in 5-HT2CR-CHO cells. FIG. 16 compares the efficacy of derivatives 210 and A2 in terms of % 1 nM 5-HT induced Cai^++ Release in 5-HT2CR-CHO cells. FIG. 17 compares the efficacy of derivatives 210 and A3 in terms of % 1 nM 5-HT induced Cai^++ release in 5-HT2CR-CHO cells. FIG. 18 compares the efficacy of derivatives 210 and A4 in terms of % 1 nM 5-HT induced Cai^++ release in 5-HT2CR-CHO cells. FIG. 19 compares the efficacy of derivatives 210 and A5 in terms of % 1 nM 5-HT induced Cai^++ release in 5-HT2CR-CHO cells. FIG. 20 compares the efficacy of derivatives 210 and A6 in terms of % 1 nM 5-HT induced Cai^++ release in 5-HT2CR-CHO cells. FIG. 21 compares the efficacy of derivatives 210 and A8 in terms of % 1 nM 5-HT induced […] release in 5-HT2CR-CHO cells.

5-HT2CR:PTEN complex = assay: in situ localization (immunohistochemistry / immunoprecipitation) of 5-HT2CR:PTEN association in cells; format: cell-based; details: for disrupting activity on 5-HT2CR:PTEN association: summary statement, assay not specified
Source text: as §1
Peptides described herein enhance 5-HT2CR signaling and peptide disruption of the serotonin (5-HT) 5-HT2CR interaction with protein phosphatase and tensin (PTEN). This interaction is functionally important to the 5-HT2CR signalosome.

5-HT2AR = target: T1, 5-HT2AR (Homo sapiens, UniProt P28223); assay: Cai++ release in 5-HT2AR-CHO cells; format: cell-based
T1 construct: expressed in transfected cells; host or cells: CHO

5-HT2CR:PTEN interaction = assay: split luciferase assay of direct 5-HT2CR:PTEN interaction in live cells; format: cell-based
Source text: In addition split luciferase assays were used to detect direct coupling of 5-HT2CR with PTEN.

rats = assay: 1-choice serial reaction time task, impulsive action (premature responses); format: in vivo, rat; details: 1-choice serial reaction time task, single agent
Source text: FIG. 23 illustrates additional behavioral effects of TAT-3L4F.

T1 sequence (P28223 whole entry): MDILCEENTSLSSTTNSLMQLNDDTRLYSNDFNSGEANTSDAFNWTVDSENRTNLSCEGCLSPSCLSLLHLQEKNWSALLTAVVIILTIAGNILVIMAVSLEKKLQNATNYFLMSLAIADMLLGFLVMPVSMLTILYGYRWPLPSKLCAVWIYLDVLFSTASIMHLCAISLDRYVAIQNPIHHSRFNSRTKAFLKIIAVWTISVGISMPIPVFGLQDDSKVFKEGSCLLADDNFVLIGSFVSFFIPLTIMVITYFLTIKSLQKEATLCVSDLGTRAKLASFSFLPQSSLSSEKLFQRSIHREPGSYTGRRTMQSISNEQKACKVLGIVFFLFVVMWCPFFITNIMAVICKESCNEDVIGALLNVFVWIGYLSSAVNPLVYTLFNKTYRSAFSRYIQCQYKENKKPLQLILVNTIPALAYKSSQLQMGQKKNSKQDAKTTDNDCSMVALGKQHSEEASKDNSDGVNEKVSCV

Compound | 5-HT (1 nM) induced Cai++ release (5-HT2CR) | disrupting activity on 5-HT2CR:PTEN association (5-HT2CR:PTEN complex) | further results
PNQDQNAR [derivative 210] | retain 3L4F activity; also recorded: increase | active fragment | –
PNQDQNARRRKKKERR [3L4F] | increases | disrupter | WAY163909 induced Cai++ release (5-HT2CR; selective orthosteric 5-HT2CR agonist WAY163909): potentiates; 3L4F-enhanced 5-HT induced Cai++ release, effect of 5-HT2CR antagonist (5-HT2CR; with 5-HT2CR antagonist): inhibits; 5-HT induced Cai++ release (5-HT2AR): does not alter; association of 5-HT2CR and PTEN (5-HT2CR:PTEN complex; quantitation of in situ localization studies): disrupts the association; direct 5-HT2CR:PTEN interaction (5-HT2CR:PTEN interaction; NLuc fused to 3rd intracellular loop of 5-HT2CR, CLuc fused to PTEN): disrupts; direct 5-HT2CR:PTEN interaction (5-HT2CR:PTEN interaction; NLuc fused to full length 5-HT2CR): disrupts
c1cc2c3c(c1)[C@H]1CCC[C@H]1N3CCNC2 [WAY163909] | – | – | impulsive action (premature responses), agent alone (rats): neither of which have effects on their own
RRKKKERR [derivative 214] | less efficacious than 3L4 F | less disrupting activity than the 210 fragment | –
V27-R45: 5-HT2CR N-terminus peptide fragment V27-R45 (VSPVAAIVTDIFNTSDGGR) [reference compound] | inactive | – | –
QNARRRKK [derivative 212] | less efficacious than 3L4 F | less disrupting activity than the 210 fragment | –
